Laboratory results reported in patent publication US20230357099A1, “PYRAZOLO [3,4-B] PYRIDINE-4-CARBOXAMIDE NITRIFICATION INHIBITOR” (EUROCHEM ANTWERPTEN, priority 2020, published 2023).

Experiments:
[1] = test system: agricultural soils; assay: In soil nitrification inhibition assay; conditions: soil; for inhibition at 50 µM: 50 µM of each compound; for inhibition at 100 µM: 100 µM of each compound
Procedure: Top layer (0 to 10 cm) soil samples were collected from different fields in Belgium (Merelbeke, Sint-Laureins and Moorslede). Vegetation was removed and samples were taken from different plots. All soil samples were mixed and sieved (mesh size 2.8 mm) to filter large debris and homogenize soil. The soil was stored at 5° C. in plastic containers covered with Saran foil to prevent changes in microbial community composition and to maintain the original soil water content.
Soil water content was determined by drying 20 g soil for ≥ 48 h in a 60° C. oven and measuring weight before and after drying. Based on the soil water content (± 20%), compound solutions were prepared so that addition of 200 µl compound and 200 µl NH4Cl solution would result in a final compound concentration of 50 µM (unless otherwise stated) and a final NH4+ concentration of 10 mM. Per treatment, 5 small pots were filled with 20 g soil. Next, the soil was treated first with the respective compound solution and then with the NH4Cl solution. Per tray, positive (50 µM DMP) and negative controls (DMSO) were included. […] Demineralized water was added to the soil every 2 to 3 days to a soil weight of 20 g. In the end, each sample of 20 g soil was dissolved in 100 ml 1 M KCI and shaken for 1 hour, followed by filtration through Whatmann® paper. The filtrate was used to measure pH, NH4+ and NO3— concentrations. The nitrification percentage was calculated as the ratio of the consumed ammonium in treated soil versus the consumed ammonium in non-treated soil; the nitrification inhibition percentage was calculated as ‘100% - the nitrification percentage’.

[2] = test system: agricultural soils (Moorslede and Sint-Laureins); assay: Greenhouse gas measurements from fertilized soil
Procedure: Two agricultural soils coming from fields in Moorslede and Sint-Laureins were used. Screw top vials were filled with 10 g soil. Vials were sealed with Parafilm and preincubated at 21° C. in the dark for 5 days. After pre-incubation, vials were ventilated using a fan. Then 100 µL of a 1 mM compound solution (10 % DMSO) was added, immediately followed by the addition of 100 µL 200 mM NH4Cl. Vials were closed gastight and 5 mL synthetic air was added to the headspace using a plastic syringe, followed by the transfer of 5 mL headspace to an evacuated 3 mL exetainer. Vials were incubated at 21° C. in the dark and background NO concentration was noted. At each sampling timepoint, 5 mL synthetic air was added again to the headspace using a plastic syringe, again followed by the transfer of 5 mL headspace to an evacuated 3 mL exetainer. Vials were ventilated and closed again, and new gas samples were transferred to exetainers like before. N2O in the exetainers were measured via gas chromatography (GC-14 B (Schimadzu) equipped with Haysep Q columns (same spec) and an ECD detector, He at c.a. 20 mL min, 70° C.). The CO2 and CH4 concentration in the 3 mL exetainer vials was measured using a GC (Trace-GC, Interscience) equipped with Haysep Q columns (80-100, ⅛″ divided in 2 part 0.25 and 2.0 m connected with a 6 port valve to allow backflush of water vapor) and a FID (CH4) and TCD (CO2). Carrier gas was He c.a. 20 mL/min kept at 90° C. NO concentration was measured directly by connecting a chemiluminescence NO detector (CLD 77 AM, eco physics) directly to the headspace using a needle.

## CC(C)c1cc(C(=O)N2CCSCC2)c2cnn(C(C)C)c2n1 [Example 2]
[1]; 72 h, Soil 2, 3 days
  inhibition at 50 µM: 4%
[1]; 72 h, Soil 3, 3 days
  inhibition at 50 µM: 5%
[1]; 168 h, Soil 1, 7 days
  inhibition at 50 µM: 0%
[1]; 168 h, Soil 2, 7 days
  inhibition at 50 µM: 15%
[1]; 168 h, Soil 2, 7 days, 6 inhibitors alone and combined with Example 2
  inhibition at 100 µM: 0%
[1]; 168 h, Soil 2, 7 days, double and triple combinations
  inhibition at 100 µM: 0%
[1]; 168 h, Soil 3, 7 days
  inhibition at 50 µM: 0%
[2]; Moorslede soil
  N2O emissions compared to the DMSO control (in words): strongly reduced the emissions
  Cumulative emission at indicated timepoint [ppb], N2O, 4 h: 119 ppb
  Cumulative emission at indicated timepoint [ppb], N2O, 24 h: 834 ppb
  Cumulative emission at indicated timepoint [ppb], N2O, 48 h: 1616 ppb
  Cumulative emission at indicated timepoint [ppb], N2O, 72 h: 1875 ppb
  Cumulative emission at indicated timepoint [ppb], N2O, 99 h: 1875 ppb
  Cumulative emission at indicated timepoint [ppb], NO, 4 h: 256 ppb
  Cumulative emission at indicated timepoint [ppb], NO, 24 h: 611 ppb
  Cumulative emission at indicated timepoint [ppb], NO, 48 h: 1020 ppb
  Cumulative emission at indicated timepoint [ppb], NO, 72 h: 1189 ppb
  Cumulative emission at indicated timepoint [ppb], NO, 99 h: 1183 ppb
[2]; Sint-Laureins soil
  NO emissions compared to the DMSO or DMP control (in words): reduce NO emissions
  Cumulative emission at indicated timepoint [ppb], N2O, 4 h: 33 ppb
  Cumulative emission at indicated timepoint [ppb], N2O, 24 h: 498 ppb
  Cumulative emission at indicated timepoint [ppb], N2O, 48 h: 1074 ppb
  Cumulative emission at indicated timepoint [ppb], N2O, 72 h: 1562 ppb
  Cumulative emission at indicated timepoint [ppb], N2O, 99 h: 1703 ppb
  Cumulative emission at indicated timepoint [ppb], NO, 4 h: 81 ppb
  Cumulative emission at indicated timepoint [ppb], NO, 24 h: 201 ppb
  Cumulative emission at indicated timepoint [ppb], NO, 48 h: 371 ppb
  Cumulative emission at indicated timepoint [ppb], NO, 72 h: 547 ppb
  Cumulative emission at indicated timepoint [ppb], NO, 99 h: 600 ppb
